Assay results published in patent publication US4595678A, “N-substituted pseudo-aminosugars and pharmaceutical compositions containing same” (Takeda Chemical Industries, Ltd., priority 1982, dated 1986).
Where two headings read alike, the source gives them in different places.

Columns and labels:
[1] = target: T1, saccharase (porcine intestinal mucosa) (Sus scrofa, UniProt P56729); assay: Glucosidase inhibitory activity, saccharase (sucrose as substrate); type: biochemical
T1 construct: prepared from porcine intestinal mucosa; from tissue; host or cells: porcine intestinal mucosa
Procedure: (§1) The method of assaying the glucosidase inhibitory activity.
(§2) The inhibitory activities against maltase or saccharase prepared from porcine intestinal mucosa [prepared in accordance with the procedure as described by B. Borgstrom and A. Dahlqvist in Acta Chem. Scand., 12, 1997-2006, (1958)], when maltose or sucrose is used as a substrate, were determined by adding, to 0.25 ml of a solution of an enzyme prepared by diluting suitably with 0.02M phosphate buffer (pH 6.8), 0.5 ml of an inhibitory substance to be tested (compound [I] or a pharmaceutically acceptable salt thereof) in the same buffer and 0.25 ml of 0.05M maltose or 0.05M sucrose as the substrate in the same buffer, allowing the mixture to react at 37° C. for 10 minutes, then adding 3 ml of Glucose B-Test Reagent (a glucose oxidase reagent for measurement of glucose, produced by Wako Pure Chemical Co., Japan), further warming the mixture at 37° C. for 20 minutes and measuring the absorbance of the colored reaction solution at 505 nm.

[2] = tested on: α-glucoside hydrolase (α-glucosidase); details: earlier reports; cited from earlier work
[3] = target: maltase (porcine intestinal mucosa); assay: Glucosidase inhibitory activity, maltase (maltose as substrate); type: biochemical; details: read-out: IC50 (maltase), 50% inhibition concentration, pH 6.8, 37° C., 10 minutes
Procedure: as §1, §2

[4] = read-out: IC50 (saccharase), 50% inhibition concentration, pH 6.8, 37° C., 10 minutes

T1 sequence (P56729 with tags, fused parts or gaps limits assumed): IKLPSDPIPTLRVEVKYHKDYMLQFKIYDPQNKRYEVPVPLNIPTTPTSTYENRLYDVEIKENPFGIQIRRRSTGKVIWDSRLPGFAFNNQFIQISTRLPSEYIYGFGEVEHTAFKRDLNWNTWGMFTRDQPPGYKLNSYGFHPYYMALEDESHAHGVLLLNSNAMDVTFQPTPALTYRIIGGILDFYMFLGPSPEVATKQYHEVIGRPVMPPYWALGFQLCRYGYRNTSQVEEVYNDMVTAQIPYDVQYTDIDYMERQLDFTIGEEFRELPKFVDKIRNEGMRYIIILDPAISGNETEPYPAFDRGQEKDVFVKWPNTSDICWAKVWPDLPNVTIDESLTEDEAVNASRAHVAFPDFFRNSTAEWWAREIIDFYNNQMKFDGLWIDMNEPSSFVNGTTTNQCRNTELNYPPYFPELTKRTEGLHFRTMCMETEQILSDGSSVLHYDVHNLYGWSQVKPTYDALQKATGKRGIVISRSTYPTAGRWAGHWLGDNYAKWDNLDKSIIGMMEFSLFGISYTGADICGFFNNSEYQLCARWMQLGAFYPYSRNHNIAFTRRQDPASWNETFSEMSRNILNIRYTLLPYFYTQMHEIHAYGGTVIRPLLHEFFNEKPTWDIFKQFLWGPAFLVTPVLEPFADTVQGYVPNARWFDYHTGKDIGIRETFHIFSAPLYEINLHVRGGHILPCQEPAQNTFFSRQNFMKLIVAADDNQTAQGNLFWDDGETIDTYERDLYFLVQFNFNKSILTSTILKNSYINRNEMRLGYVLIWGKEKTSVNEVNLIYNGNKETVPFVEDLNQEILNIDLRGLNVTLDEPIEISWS
T1 sequence (P56729 with tags, fused parts or gaps partner limits assumed): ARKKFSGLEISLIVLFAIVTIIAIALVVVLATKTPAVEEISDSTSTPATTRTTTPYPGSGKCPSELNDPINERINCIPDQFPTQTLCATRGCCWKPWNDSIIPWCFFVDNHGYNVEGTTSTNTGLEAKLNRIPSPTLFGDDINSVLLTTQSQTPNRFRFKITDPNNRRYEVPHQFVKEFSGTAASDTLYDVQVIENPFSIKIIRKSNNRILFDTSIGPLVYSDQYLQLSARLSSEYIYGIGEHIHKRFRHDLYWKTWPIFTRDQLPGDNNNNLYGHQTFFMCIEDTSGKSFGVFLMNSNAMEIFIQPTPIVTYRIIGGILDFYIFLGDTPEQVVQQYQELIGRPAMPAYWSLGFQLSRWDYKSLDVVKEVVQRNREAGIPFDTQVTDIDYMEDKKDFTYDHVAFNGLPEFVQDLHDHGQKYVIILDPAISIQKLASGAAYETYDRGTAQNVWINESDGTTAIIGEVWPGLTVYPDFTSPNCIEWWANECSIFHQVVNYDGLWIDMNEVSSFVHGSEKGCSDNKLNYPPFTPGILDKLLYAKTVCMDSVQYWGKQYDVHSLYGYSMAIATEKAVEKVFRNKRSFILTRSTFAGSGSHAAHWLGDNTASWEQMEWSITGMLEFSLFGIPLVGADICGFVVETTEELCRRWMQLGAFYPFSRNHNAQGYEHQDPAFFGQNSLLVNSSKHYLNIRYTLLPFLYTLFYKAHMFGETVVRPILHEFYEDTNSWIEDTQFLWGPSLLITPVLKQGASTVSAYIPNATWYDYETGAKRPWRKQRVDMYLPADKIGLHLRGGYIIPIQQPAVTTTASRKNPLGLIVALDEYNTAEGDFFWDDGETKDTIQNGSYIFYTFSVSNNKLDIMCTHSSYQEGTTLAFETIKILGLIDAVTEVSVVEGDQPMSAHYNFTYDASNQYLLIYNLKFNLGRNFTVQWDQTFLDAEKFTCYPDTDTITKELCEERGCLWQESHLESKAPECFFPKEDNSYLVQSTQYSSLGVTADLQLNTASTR

## C[C@H]1CC(O)[C@H](O)[C@@H](O)[C@@H]1N[C@H]1C[C@](O)(CO)[C@@H](O)[C@H](O)[C@H]1O (single isomer, unassigned) [Example 21, isomer (b)]
[1]; [4]
  IC50: 36 nM

## C[C@H]1O[C@H](O[C@H]2[C@H](O)[C@@H](O)[C@@H](O[C@H]3[C@H](O)[C@@H](O)C(O)O[C@@H]3CO)O[C@@H]2CO)[C@H](O)[C@@H](O)[C@@H]1N[C@H]1C=C(CO)[C@@H](O)[C@H](O)[C@H]1O (stereo partly shown) [Acarbose]
[2]
  α-glucoside hydrolase suppressing / α-glucosidase inhibitory activity: far from being satisfactory

## C[C@H]1O[C@H](O[C@H]2[C@H](O)[C@@H](O)[C@@H]3OC[C@H]2O3)[C@H](O)[C@@H](O)[C@@H]1N[C@H]1C[C@](O)(CO)[C@@H](O)[C@H](O)[C@H]1O [Example 25, isomer (b)]
[3]
  IC50: 130 nM
[1]; pH 6.8, 37° C., 10 minutes
  IC50: 25 nM

## C[C@H]1CC(O)[C@H](O)[C@@H](O)[C@@H]1N[C@H]1C[C@](O)(CO)[C@@H](O)[C@H](O)[C@H]1O (single isomer, unassigned) [Example 21, isomer (a)]
[1]; [4]
  IC50: 35 nM

## OC[C@H]1C[C@@H](N[C@H]2C[C@](O)(CO)[C@@H](O)[C@H](O)[C@H]2O)[C@H](O)[C@@H](O)[C@@H]1O [Example 18, (1R,2S) isomer, N-[(1R,2S)-(2,4/3,5)-2,3,4-trihydroxy-5-hydroxymethylcyclohexyl]valiolamine]
[3]
  IC50: 44 nM
[1]; pH 6.8, 37° C., 10 minutes
  IC50: 48 nM

## CO[C@H]1O[C@H](C)[C@@H](N[C@H]2C[C@H](CO)[C@@H](O)[C@H](O)[C@H]2O)[C@H](O)[C@H]1O [Example 1,6-deoxyglucopyranoside isomer, Methyl 4-[(1S,2S)-(2,4/3,5)-2,3,4-trihydroxy-5-hydroxymethylcyclohexyl]amino-4,6-dideoxy-α-D-glucopyranoside]
[3]
  IC50: 1800 nM
[1]; pH 6.8, 37° C., 10 minutes
  IC50: 740 nM

## NC1CC(N)C(N[C@H]2C[C@](O)(CO)[C@@H](O)[C@H](O)[C@H]2O)C(O)C1O (single isomer, unassigned) [Example 12, Isomer D, N-(2,4-Diamino-5,6-dihydroxycyclohexyl)valiolamine]
[3]
  IC50: 1000 nM
[1]; [4]
  IC50: 88 nM

## CO[C@H]1O[C@H](C)[C@@H](N[C@H]2C=C(CO)[C@@H](O)[C@H](O)[C@H]2O)[C@H](O)[C@H]1O [Reference Example 40,6-deoxyglucopyranoside isomer, Methyl 4-[(1S,6S)-(4,6/5)-4,5,6-trihydroxy-3-hydroxymethyl-2-cyclohexen-1-yl]amino-4,6-dideoxy-α-D-glucopyranoside]
[1]; pH 6.8, 37° C., 10 minutes
  IC50: 700 nM

## OC[C@H]1OC(O)[C@H](O)C(N[C@H]2C[C@](O)(CO)[C@@H](O)[C@H](O)[C@H]2O)[C@@H]1O (stereo partly shown) [N-(2,3,5-trihydroxy-6-hydroxymethyltetrahydropyran-4-yl)valiolamine]
[3]
  IC50: 110 nM
[1]; [4]
  IC50: 90 nM

## CCOC(=O)NC1CC(NC(=O)OCC)C(N[C@H]2C[C@](O)(CO)[C@@H](O)[C@H](O)[C@H]2O)C(O)C1O (stereo partly shown) [Example 11, N-(2,4-Diethoxycarbonylamino-5,6-dihydroxycyclohexyl)valiolamine]
[3]
  IC50: 9000 nM
[1]; [4]
  IC50: 4900 nM

## N[C@H]1C[C@H](CO)C(N[C@H]2C[C@](O)(CO)[C@@H](O)[C@H](O)[C@H]2O)[C@H](O)[C@H]1O (single isomer, unassigned) [Example 8,4-amino derivative from the later eluted component of Example 7]
[3]
  IC50: 2800 nM
[1]; [4]
  IC50: 230 nM

## N[C@H]1C[C@H](CO)C(N[C@H]2C[C@H](CO)[C@@H](O)[C@H](O)[C@H]2O)[C@H](O)[C@H]1O (single isomer, unassigned) [Example 6, later eluted isomer]
[1]; [4]
  IC50: 78000 nM

## N[C@H]1C=C(CO)[C@@H](O)[C@H](O)[C@H]1O [valienamine]
[2]
  α-glucoside hydrolase suppressing / α-glucosidase inhibitory activity: possesses an action of suppressing the function of α-glucoside hydrolase

## OC[C@H]1C[C@H](NC2[C@@H](O)C(O)O[C@H](CO)[C@H]2O)[C@H](O)[C@@H](O)[C@@H]1O (stereo partly shown) [N-(2,3,5-trihydroxy-6-hydroxymethyltetrahydropyran-4-yl)validamine]
[3]
  IC50: 1900 nM
[1]; [4]
  IC50: 170 nM

## CC1(C)O[C@H]2O[C@H]([C@H](O)CO)C(N[C@H]3C[C@](O)(CO)[C@@H](O)[C@H](O)[C@H]3O)[C@H]2O1 (stereo partly shown) [N-[2,3-O-isopropylidene-2,3-dihydroxy-5-(1,2-dihydroxyethyl)tetrahydrofuran-4-yl]valiolamine]
[1]; [4]
  IC50: 37000 nM

## C[C@H]1O[C@H](O[C@H]2[C@H](O)[C@@H](O)C(O)O[C@@H]2CO)[C@H](O)[C@@H](O)[C@@H]1N[C@H]1C[C@](O)(CO)[C@@H](O)[C@H](O)[C@H]1O (stereo partly drawn) [Example 28, 4-O-α-[4-[(1S)-(1,2,4,5(OH)/3,5(CH2 OH))-(2,3,4,5-Tetrahydroxy-5-(hydroxymethyl)cyclohexyl)amino]-4,6-dideoxy-D-glucopyranosyl]-D-glucopyranose]
[3]
  IC50: 120 nM
[1]; pH 6.8, 37° C., 10 minutes
  IC50: 80 nM

## O=C(N[C@H]1C[C@H](CO)C(N[C@H]2C[C@H](CO)[C@@H](O)[C@H](O)[C@H]2O)[C@H](O)[C@H]1O)OCc1ccccc1 (stereo partly drawn) [Example 5, [(1S,2S)-(2,4/3,5)-2,3,4-Trihydroxy-5-hydroxymethylcyclohexyl][(2S)-(2,6/3,4)-4-benzyloxycarbonylamino-2,3-dihydroxy-6-hydroxy-methylcyclohexyl]amine]
[1]; pH 6.8, 37° C., 10 minutes
  IC50: 700 nM

## CO[C@H]1O[C@H](C)[C@H](N[C@H]2C[C@H](CO)[C@@H](O)[C@H](O)[C@H]2O)[C@H](O)[C@H]1O [Example 1,6-deoxygalactopyranoside isomer, Methyl 4-[(1S,2S)-(2,4/3,5)-2,3,4-trihydroxy-5-hydroxymethylcyclohexyl]amino-4,6-dideoxy-α-D-galactopyranoside]
[1]; pH 6.8, 37° C., 10 minutes
  IC50: 5600 nM

## CO[C@H]1O[C@H](CO)[C@@H](N[C@H]2C[C@](O)(CO)[C@@H](O)[C@H](O)[C@H]2O)[C@H](O)[C@H]1O [Example 4, Glucopyranoside isomer, Methyl 4-[(1S,2S)-(2,4,5(OH)/3,5(CH2 OH))-2,3,4,5-tetrahydroxy-5-hydroxymethylcyclohexyl]amino-4-deoxy-α-D-glucopyranoside]
[3]
  IC50: 72 nM
[1]; pH 6.8, 37° C., 10 minutes
  IC50: 80 nM

## NC1CC(N)C(N[C@H]2C[C@H](CO)[C@@H](O)[C@H](O)[C@H]2O)C(O)C1O (stereo partly shown) [Example 14, N-(2,4-Diamino-5,6-dihydroxycyclohexyl)validamine]
[1]; [4]
  IC50: 880 nM

## CO[C@H]1O[C@H](CO)[C@@H](N[C@H]2C[C@H](CO)[C@@H](O)[C@H](O)[C@H]2O)[C@H](O)[C@H]1O [Example 3, Glucopyranoside isomer, Methyl 4-[(1S,2S)-(2,4/3,5)-2,3,4-trihydroxy-5-hydroxymethylcyclohexyl]amino-4-deoxy-α-D-glucopyranoside]
[3]
  IC50: 4400 nM
[1]; pH 6.8, 37° C., 10 minutes
  IC50: 580 nM

## N[C@H]1C[C@H](CO)C(N[C@H]2C[C@H](CO)[C@@H](O)[C@H](O)[C@H]2O)[C@H](O)[C@H]1O (single isomer, unassigned) [Example 6, first eluted isomer]
[3]
  IC50: 2900 nM
[1]; [4]
  IC50: 1600 nM

## CO[C@H]1O[C@H](CO)[C@H](N[C@H]2C[C@](O)(CO)[C@@H](O)[C@H](O)[C@H]2O)[C@H](O)[C@H]1O [Example 4, Galactopyranoside isomer, Methyl 4-[(1S,2S)-(2,4,5(OH)/3,5-(CH2 OH))-2,3,4,5-tetrahydroxy-5-hydroxymethylcyclohexyl]amino-4-deoxy-α-D-galactopyranoside]
[3]
  IC50: 320 nM
[1]; pH 6.8, 37° C., 10 minutes
  IC50: 620 nM

## N[C@H]1C[C@H](CO)C(N[C@H]2C[C@](O)(CO)[C@@H](O)[C@H](O)[C@H]2O)[C@H](O)[C@H]1O (single isomer, unassigned) [Example 8,4-amino derivative from the first eluted component of Example 7]
[3]
  IC50: 3300 nM
[1]; [4]
  IC50: 250 nM

## C[C@H]1C[C@H](N)[C@H](O)[C@@H](O)[C@H]1N[C@H]1C[C@](O)(CO)[C@@H](O)[C@H](O)[C@H]1O [Example 20, isomer (b), N-[(1S,2S)-(2,6/3,4)-4-amino-2,3-dihydroxy-6-methylcyclohexyl]valiolamine]
[1]; pH 6.8, 37° C., 10 minutes
  IC50: 53 nM

## OC[C@H]1C[C@H](N[C@@H]2C[C@H](CO)[C@@H](O)[C@H](O)[C@H]2O)[C@H](O)[C@@H](O)[C@@H]1O [Example 17, (1R,2S) isomer, N-[(1R,2S)-(2,4/3,5)-2,3,4-trihydroxy-5-hydroxymethylcyclohexyl]validamine]
[3]
  IC50: 2200 nM
[1]; pH 6.8, 37° C., 10 minutes
  IC50: 270 nM

## OCC1=C[C@H](NC2[C@@H](O)C(O)O[C@H](CO)[C@H]2O)[C@H](O)[C@@H](O)[C@@H]1O (stereo partly shown) [N-(2,3,5-trihydroxy-6-hydroxymethyltetrahydropyran-4-yl)valienamine]
[3]
  IC50: 31000 nM
[1]; [4]
  IC50: 450 nM

## OC[C@H]1C[C@H](N[C@H]2C[C@](O)(CO)[C@@H](O)[C@H](O)[C@H]2O)[C@H](O)[C@@H](O)[C@@H]1O [Example 18, (1S,2S) isomer, N-[(1S,2S)-(2,4/3,5)-2,3,4-trihydroxy-5-hydroxymethylcyclohexyl]valiolamine]
[1]; pH 6.8, 37° C., 10 minutes
  IC50: 5600 nM

## CC1(O)CC(N)C(O)C(O)C1O (stereo not shown) [compound 26, 7-Deoxyvaliolamine]
[1]; pH 6.8, 37° C., 10 minutes
  IC50: 24000 nM

## CO[C@H]1O[C@H](CO)[C@H](N[C@H]2C[C@H](CO)[C@@H](O)[C@H](O)[C@H]2O)[C@H](O)[C@H]1O [Example 3, Galactopyranoside isomer, Methyl 4-[(1S,2S)-(2,4/3,5)-2,3,4-trihydroxy-5-hydroxymethylcyclohexyl]amino-4-deoxy-α-D-galactopyranoside]
[1]; pH 6.8, 37° C., 10 minutes
  IC50: 1000 nM
